In US5622962A, “5α-reductase inhibitors” (priority 1995, dated 1997):
Where two headings read alike, the source gives them in different places.

Tests used:
[1] = target: T1, Type I 5α-Reductase from Human Scalp (Homo sapiens, UniProt P18405); test: Human Type I 5α-reductase assay (conversion of [3H]-testosterone to 5α-reduced metabolites); type: biochemical
T1 construct: Scalp punch biopsies from graft recipient sites were obtained from human hair transplant procedures; from tissue; host or cells: human scalp punch biopsies (hair transplant graft recipient sites), homogenate, 100,000×g pellet
T1 sequence (P18405 1-259): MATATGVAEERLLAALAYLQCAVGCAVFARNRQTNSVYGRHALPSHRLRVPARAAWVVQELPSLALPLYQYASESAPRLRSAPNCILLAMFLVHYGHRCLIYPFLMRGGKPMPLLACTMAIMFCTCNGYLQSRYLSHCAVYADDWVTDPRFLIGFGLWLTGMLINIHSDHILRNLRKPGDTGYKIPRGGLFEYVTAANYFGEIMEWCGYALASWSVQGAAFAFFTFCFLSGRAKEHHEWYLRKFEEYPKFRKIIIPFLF

[2] = target: T2, Type II 5α-Reductase from Human Prostate (Homo sapiens, UniProt P31213); test: Human Type II 5α-reductase assay (conversion of [3H]-testosterone to 5α-reduced metabolites); type: biochemical; conditions: for percent inhibition of Type II AR: 0.3 μM
T2 construct: The same procedure as above was used for preparations using tissue from prostate surgery; from tissue; host or cells: human prostate tissue from surgery, homogenate, 100,000×g pellet
T2 sequence (P31213 1-254): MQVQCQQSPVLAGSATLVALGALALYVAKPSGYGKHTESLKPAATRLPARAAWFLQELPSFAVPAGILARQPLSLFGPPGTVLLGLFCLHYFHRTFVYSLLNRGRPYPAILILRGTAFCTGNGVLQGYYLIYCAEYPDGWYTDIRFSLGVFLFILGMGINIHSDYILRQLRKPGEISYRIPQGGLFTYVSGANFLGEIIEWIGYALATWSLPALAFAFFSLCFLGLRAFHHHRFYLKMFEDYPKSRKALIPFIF

[3] = pH 7.5, 0.3 μM, 50 nM [3H]-testosterone, pH 7.5, 25°, 180 min, compared to control reaction mixtures, read-out: percent inhibition of Type I AR
[4] = sodium acetate pH 5.5, 25°, 30 min, compared to control reaction mixtures
[5] = pH 5.5, 0.3 μM, sodium acetate pH 5.5, 25°, 30 min, compared to control reaction mixtures, read-out: percent inhibition of Type II AR

Row | inhibition at 0.3 µM [1, 3] | percent inhibition of Type II AR [2, 4] | inhibition at 0.3 µM [2, 5] | Compound | inhibition at 0.3 µM ([1]; pH 7.5, read-out: percent inhibition of Type I AR) | inhibition at 0.3 µM ([2]; pH 5.5, read-out: percent inhibition of Type II AR)
1 | 96% | 34% | 51% | CN1C(=O)CC[C@]2(C)c3ccc(Sc4cccc(Cl)c4)cc3CC[C@@H]12 [Example 100, (+)-(4aR)-(10bR)-4,10b-dimethyl-8-(3-chlorophenylthio)-1,2,3,4,-4a,5,6,10b-octahydrobenzo[f]quinolin-3-one] | – | –
2 | 78% | – | 63% | CN1C(=O)CC[C@]2(C)c3ccc(Sc4nc5ccc(Cl)cc5s4)cc3CC[C@@H]12 [Example 158, (+)-(4aR)-(10bR)-4-methyl-8-(6-chloro-2-benzothiazolylthio)-10b-methyl-1,2,3,4,4a,5,6,10b-octahydrobenzo[f]quinolin-3-one] | – | –
3 | – | – | – | CN1C(=O)CC[C@]2(C)c3ccc(/C=C/c4ccccc4)cc3CC[C@@H]12 [Example 279, (4aR)-(10bR)-4,10b-dimethyl-8-(2-phenylethenyl)-1,2,3,4,4a,5,6,10b-octahydrobenzo[f]quinolin-3-one] | 85% | 60%
4 | 16% | – | 26% | CCN(CC)C(=O)c1ccccc1-c1ccc2c(c1)CC[C@H]1N(C)C(=O)CC[C@]21C [Example 74] | – | –
5 | 53% | – | 36% | CN1C(=O)CC[C@]2(C)c3ccc(-c4c5ccccc5cc5ccccc45)cc3CC[C@@H]12 [Example 61, (+)-(4aR)-(10bR)-4-methyl-8-(9-anthracenyl)-10b-methyl-1,2,3,4,4a,5,6,10b-octahydrobenzo[f]quinolin-3-one] | – | –
6 | 90% | – | 45% | CC(C)c1cccc2sc(-c3ccc4c(c3)CC[C@H]3N(C)C(=O)CC[C@]43C)nc12 [Example 264, (+)-(4aR)-(10bR)-4-methyl-8-(2-[4-isopropyl]benzothiazolyl)-10b-methyl-1,2,3,4,4a,5,6,10b-octahydrobenzo[f]quinolin-3-one] | – | –
7 | 88% | – | 90% | Cc1ccc(C)c2sc(Sc3ccc4c(c3)CC[C@H]3N(C)C(=O)CC[C@]43C)nc12 [Example 185, (+)-(4aR)-(10bR)-4-methyl-8-(4,7-dimethyl-2-benzothiazolylthio)-10b-methyl-1,2,3,4,4a,5,6,10b-octahydrobenzo[f]-quinolin-3-one] | – | –
8 | 58% | – | 40% | CN1C(=O)CC[C@]2(C)c3ccc(Sc4nccc5sccc45)cc3CC[C@@H]12 [Example 175, (+)-(4aR)-(10bR)-4-methyl-8-(4-thieno [3,2-c]pyridylthio)-10b-methyl-1,2,3,4,4a,5,6,10b-octahydrobenzo[f]quinolin-3-on] | – | –
9 | 93% | – | 33% | CN1C(=O)CC[C@]2(C)c3ccc(-c4ccc([N+](=O)[O-])s4)cc3CC[C@@H]12 [Example 217, (+)-(4aR)-(10bR)-4-methyl-8-(5-nitro-2-thienyl)-10b-methyl-1,2,3,4,4a,5,6,10b-octahydrobenzo[f]quinolin-3-one] | – | –
10 | 62% | – | 31% | CN1C(=O)CC[C@]2(C)c3ccc(Sc4ncccc4[N+](=O)[O-])cc3CC[C@@H]12 [Example 167, (+)-(4aR)-(10bR)-4-methyl-8-(3-nitro-2-pyridinylthio)-10b-methyl-1,2,3,4,4a,5,6,10b-octahydrobenzo[f]quinolin-3-one] | – | –
11 | 44% | – | 0% | C[C@]12CCC(=O)N[C@@H]1CCc1cc(Sc3ccc(Cl)cc3)ccc12 [Example 5, (+)-(4aR)-(10bR)-8-(4-chlorophenylthio)-10b-methyl-1,2,3,4,4a,5,6,10b-octahydrobenzo [f]quinolin-3-one] | – | –
12 | 3% | – | 31% | CN1C(=O)CC[C@]2(C)c3ccc(-c4ccc(F)c(C(F)(F)F)c4)cc3CC[C@@H]12 [Example 46, (+)-(4aR)-(10bR)-4-methyl-8-(4-fluoro-3-trifluoromethylphenyl)-10b-methyl-1,2,3,4,4a,5,6,10b-octahydrobenzo[f]-quinolin-3-one] | – | –
13 | 88% | – | 18% | CN1C(=O)CC[C@]2(C)c3ccc(-c4ccccc4Cl)cc3CC[C@@H]12 [Example 41, (+)-(4aR)-(10bR)-4-methyl-8-(2-chlorophenyl)-10b-methyl-1,2,3,4,4a,5,6,10b-octahydrobenzo[f]quinolin-3-one] | – | –
14 | 13% | – | 32% | CN1C(=O)CC[C@]2(C)c3ccc(C(=O)NCc4ccccc4)cc3CC[C@@H]12 [Example 146, (+)-(4aR)-(10bR)-4-methyl-8-(benzylcarboxamido)-10b-methyl-1,2,3,4,4a,5,6,10b-octahydrobenzo[f]quinolin-3-one] | – | –
15 | 71% | – | 51% | COc1ccc2nc(Sc3ccc4c(c3)CC[C@H]3N(C)C(=O)CC[C@]43C)sc2c1 [Example 161, (+)-(4aR)-(10bR)-4-methyl-8-(6-methoxy-2-benzothiazolylthio)-10b-methyl-1,2,3,4,4a,5,6,10b-octahydrobenzo[f]quinolin-3-one] | – | –
16 | 35% | – | 83% | CN1C(=O)CC[C@]2(C)c3ccc(C(=O)OC(c4ccccc4)c4ccccc4)cc3CC[C@@H]12 [Example 147, (4aR)-(10bR)-4,10b-dimethyl-8-diphenylmethoxycarbonyl-1,2,3,4,4a,5,6,10b-octahydrobenzo[f]quinolin-3-one] | – | –
17 | 88% | – | 26% | CN1C(=O)CC[C@]2(C)c3ccc(CSc4nc5ccccc5s4)cc3CC[C@@H]12 [Example 138, (4aR)-(10bR)-8-(2-benzothiazole)thiomethyl-4,10b-dimethyl-1,2,3,4,4a,5,6,10b-octahydrobenzo[f]quinolin-3-one] | – | –
18 | 90% | – | 71% | CN1C(=O)CC[C@]2(C)c3ccc(SC(c4ccccc4)c4ccccc4)cc3CC[C@@H]12 [Example 195, (4aR)-(10bR)-8-diphenylmethylthio-4,10b-dimethyl-1,2,3,4,4a,5,6,10b-octahydrobenzo[f]-quinoline-3-one] | – | –
19 | 84% | – | 67% | Cc1ccc(S(=O)(=O)n2ccc3cc(-c4ccc5c(c4)CC[C@H]4N(C)C(=O)CC[C@]54C)ccc32)cc1 [Example 236, (+)-(4aR)-(10bR)-4-methyl-8-(1-p-toluenesulfonylindol-5-yl)-10b-methyl-1,2,3,4,4a,5,6,10b-octahydrobenzo[f]quinolin-3-one] | – | –
20 | 89% | – | 52% | Cc1ccc(Sc2ccc3c(c2)CC[C@H]2N(C)C(=O)CC[C@]32C)cc1 [Example 96, (+)-(4aR)-(10bR)-4,10b-dimethyl-8-(4-methylphenylthio)-1,2,3,4,4a,5,6,10b-octahydrobenzo[f]quinolin-3-one] | – | –
21 | 89% | 87% | 88% | CN1C(=O)CC[C@]2(C)c3ccc(Sc4nc5c(Br)cccc5s4)cc3CC[C@@H]12 [Example 183, (+)-(4aR)-(10bR)-4-methyl-8-(4-bromo-2-benzothiazolylthio)-10b-methyl-1,2,3,4,4a,5,6,10b-octahydrobenzo[f]quinolin-3-one] | – | –
22 | 65% | – | 33% | CN1C(=O)CC[C@]2(C)c3ccc(-c4cccc5cnccc45)cc3CC[C@@H]12 [Example 241, (+)-(4aR)-(10bR)-4-methyl-8-(5-isoquinolinyl)-10b-methyl-1,2,3,4,4a,5,6,10b-octahydrobenzo[f]quinolin-3-one] | – | –
23 | 58% | – | 33% | CN1C(=O)CC[C@]2(C)c3ccc(Sc4nccs4)cc3CC[C@@H]12 [Example 149, (+)-(4aR)-(10bR)-4-methyl-8-(2-thiazoylthio)-10b-methyl-1,2,3,4,4a,5,6,10b-octahydrobenzo[f]quinolin-3-one] | – | –
24 | 88% | – | 78% | CN1C(=O)CC[C@]2(C)c3ccc(Sc4nc5c(OC(F)(F)F)cccc5s4)cc3CC[C@@H]12 [Example 188, (+)-(4aR)-(10bR)-4-methyl-8-(4-trifluoromethoxy-2-benzothiazolylthio)-10b-methyl-1,2,3,4,4a,5,6,10b-octahydrobenzo[f]-quinolin-3-one] | – | –
25 | 23% | – | 32% | CN1C(=O)CC[C@]2(C)c3ccc(-c4ccccc4[N+](=O)[O-])cc3CC[C@@H]12 [Example 124, (+)-(4aR)-(10bR)-4-methyl-8-(2-nitrophenyl)-10b-methyl-1,2,3,4,4a,5,6,10b-octahydrobenzo[f]quinolin-3-one] | – | –
26 | 73% | – | 39% | CN1C(=O)CC[C@]2(C)c3ccc(Sc4cnc5ccccc5c4)cc3CC[C@@H]12 [Example 106, (4aR)-(10bR)-4,10b-dimethyl-8-(3-quinolinylthio)-1,2,3,4,4a,5,6,10b-octahydrobenzo[f]quinolin-3-one] | – | –
